{
  "source": "patent US20140199690A1",
  "about": "“MATERIALS AND METHODS FOR HIGH-THROUGHPUT DETERMINATION OF GENOME-WIDE DNA METHYLATION PROFILE” (THE HONG KONG UNIVERSITY OF SCIENCE AND TECHNOLOGY, priority 2013, published 2014)",
  "key": {"[1]": {"test_system": "murine embryonic fibroblasts cells", "details": "5 μM aza-dC; cited from earlier work"}, "[2]": {"test_system": "HEK293T cells", "experiment": "FPDM measurement of cellular DNA methylation after 5-aza-dC treatment", "format": "cell-based, human", "details": "3 days, 100 ng DNA"}},
  "data": [
    {"smiles": "Nc1ncn([C@H]2C[C@H](O)[C@@H](CO)O2)c(=O)n1", "note": "[5-aza-dC, 5-aza-2′-deoxycytidine]", "values": [
      {"measurement": "hypomethylation relative to the untreated control", "setting": "[1]", "value": "about 42%"},
      {"measurement": "cellular DNA methylation measured by FPDM, relative to untreated control", "setting": "[2]; 5 μM 5-aza-dC", "value": "67.73±0.53 % of control"},
      {"measurement": "cellular DNA methylation measured by FPDM, relative to untreated control", "setting": "[2]; 10 μM 5-aza-dC", "value": "45.16±8.84 % of control"}
    ]}
  ]
}
